According to PubChem BioAssay (NCI):
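Here, GI50 denotes the concentration required for 50% inhibition of growth. TGI: total growth inhibition.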

Legend:
Assay in all cases: inhibition of tumour cell growth, NCI panel, 384-well format
MDA-MB-231 breast = test system: MDA-MB-231 breast
SF-295 CNS = test system: SF-295 CNS
LOX IMVI melanoma = test system: LOX IMVI melanoma
IGROV1 ovarian = test system: IGROV1 ovarian
SF-539 CNS = test system: SF-539 CNS
SK-MEL-5 melanoma = test system: SK-MEL-5 melanoma
NCI/ADR-RES ovarian = test system: NCI/ADR-RES ovarian
HOP-92 NSCLC = test system: HOP-92 NSCLC
K-562 leukemia = test system: K-562 leukemia
EKVX NSCLC = test system: EKVX NSCLC
SNB-19 CNS = test system: SNB-19 CNS
MCF7 breast = test system: MCF7 breast
HS 578T breast = test system: HS 578T breast
CCRF-CEM leukemia = test system: CCRF-CEM leukemia
HT29 colon = test system: HT29 colon
U251 glioblastoma = test system: U251 glioblastoma
KM12 colon = test system: KM12 colon
OVCAR-4 ovarian = test system: OVCAR-4 ovarian
HL-60(TB) leukemia = test system: HL-60(TB) leukemia
MDA-MB-435 melanoma = test system: MDA-MB-435 melanoma
CAKI-1 renal = test system: CAKI-1 renal
COLO 205 colon = test system: COLO 205 colon
UACC-257 melanoma = test system: UACC-257 melanoma
PC-3 prostate = test system: PC-3 prostate
MOLT-4 leukemia = test system: MOLT-4 leukemia
SK-OV-3 ovarian = test system: SK-OV-3 ovarian
T-47D breast = test system: T-47D breast
BT-549 breast = test system: BT-549 breast
A549 NSCLC = test system: A549 NSCLC
MDA-MB-468 breast = test system: MDA-MB-468 breast
SN12C renal = test system: SN12C renal
NCI-H460 NSCLC = test system: NCI-H460 NSCLC
NCI-H226 lung = test system: NCI-H226 lung
DU-145 prostate = test system: DU-145 prostate
HCT-15 colon = test system: HCT-15 colon
UO-31 renal = test system: UO-31 renal
OVCAR-3 ovarian = test system: OVCAR-3 ovarian
MALME-3M melanoma = test system: MALME-3M melanoma
A498 renal = test system: A498 renal
SW-620 colon = test system: SW-620 colon
SK-MEL-28 melanoma = test system: SK-MEL-28 melanoma
NCI-H522 lung = test system: NCI-H522 lung
SF-268 CNS = test system: SF-268 CNS
HCC-2998 colon = test system: HCC-2998 colon
RXF 393 renal = test system: RXF 393 renal
RPMI-8226 leukemia = test system: RPMI-8226 leukemia
SR leukemia = test system: SR leukemia
SNB-75 CNS = test system: SNB-75 CNS
TK-10 renal = test system: TK-10 renal
OVCAR-5 ovarian = test system: OVCAR-5 ovarian
ACHN renal = test system: ACHN renal
UACC-62 melanoma = test system: UACC-62 melanoma
NCI-H322M lung = test system: NCI-H322M lung
OVCAR-8 ovarian = test system: OVCAR-8 ovarian
HOP-62 NSCLC = test system: HOP-62 NSCLC
786-0 renal = test system: 786-0 renal
M14 melanoma = test system: M14 melanoma
NCI-H23 lung = test system: NCI-H23 lung

C=CC(=O)Nc1cccc(Oc2nc(Nc3ccc(N4CCN(C)CC4)cc3OC)ncc2Cl)c1
GI50 (MDA-MB-231 breast): 1560 nM
TGI (MDA-MB-231 breast): 2950 nM
GI50 (SF-295 CNS): 1870 nM
TGI (SF-295 CNS): 3450 nM
GI50 (LOX IMVI melanoma): 1660 nM
TGI (LOX IMVI melanoma): 3030 nM
GI50 (IGROV1 ovarian): 754 nM
TGI (IGROV1 ovarian): 2040 nM
GI50 (SF-539 CNS): 1540 nM
TGI (SF-539 CNS): 2880 nM
GI50 (SK-MEL-5 melanoma): 1570 nM
TGI (SK-MEL-5 melanoma): 2920 nM
GI50 (NCI/ADR-RES ovarian): 1510 nM
TGI (NCI/ADR-RES ovarian): 2850 nM
GI50 (HOP-92 NSCLC): 1100 nM
TGI (HOP-92 NSCLC): 2340 nM
GI50 (K-562 leukemia): 1630 nM
TGI (K-562 leukemia): 3000 nM
GI50 (EKVX NSCLC): 374 nM
TGI (EKVX NSCLC): 1650 nM
GI50 (SNB-19 CNS): 2600 nM
TGI (SNB-19 CNS): 8340 nM
GI50 (MCF7 breast): 1140 nM
TGI (MCF7 breast): 2360 nM
GI50 (HS 578T breast): 1370 nM
TGI (HS 578T breast): 2670 nM
GI50 (CCRF-CEM leukemia): 1420 nM
TGI (CCRF-CEM leukemia): 2720 nM
GI50 (HT29 colon): 1650 nM
TGI (HT29 colon): 3020 nM
GI50 (U251 glioblastoma): 1690 nM
TGI (U251 glioblastoma): 3090 nM
GI50 (KM12 colon): 1700 nM
TGI (KM12 colon): 3090 nM
GI50 (OVCAR-4 ovarian): 1540 nM
TGI (OVCAR-4 ovarian): 4150 nM
GI50 (HL-60(TB) leukemia): 1070 nM
TGI (HL-60(TB) leukemia): 2260 nM
GI50 (MDA-MB-435 melanoma): 1710 nM
TGI (MDA-MB-435 melanoma): 3100 nM
GI50 (CAKI-1 renal): 765 nM
TGI (CAKI-1 renal): 2050 nM
GI50 (COLO 205 colon): 1720 nM
TGI (COLO 205 colon): 3100 nM
GI50 (UACC-257 melanoma): 1210 nM
TGI (UACC-257 melanoma): 2460 nM
GI50 (PC-3 prostate): 1700 nM
TGI (PC-3 prostate): 3140 nM
GI50 (MOLT-4 leukemia): 1500 nM
TGI (MOLT-4 leukemia): 2820 nM
GI50 (SK-OV-3 ovarian): 1040 nM
TGI (SK-OV-3 ovarian): 2230 nM
GI50 (T-47D breast): 1110 nM
TGI (T-47D breast): 2320 nM
GI50 (BT-549 breast): 1300 nM
TGI (BT-549 breast): 2590 nM
GI50 (A549 NSCLC): 1230 nM
TGI (A549 NSCLC): 2480 nM
GI50 (MDA-MB-468 breast): 16.7 nM
TGI (MDA-MB-468 breast): 90.9 nM
GI50 (SN12C renal): 1090 nM
TGI (SN12C renal): 2610 nM
GI50 (NCI-H460 NSCLC): 1640 nM
TGI (NCI-H460 NSCLC): 3020 nM
GI50 (NCI-H226 lung): 1130 nM
TGI (NCI-H226 lung): 2520 nM
GI50 (DU-145 prostate): 1320 nM
TGI (DU-145 prostate): 3080 nM
GI50 (HCT-15 colon): 1340 nM
TGI (HCT-15 colon): 2640 nM
GI50 (UO-31 renal): 1350 nM
TGI (UO-31 renal): 2660 nM
GI50 (OVCAR-3 ovarian): 1250 nM
TGI (OVCAR-3 ovarian): 2520 nM
GI50 (MALME-3M melanoma): 1530 nM
TGI (MALME-3M melanoma): 2860 nM
GI50 (A498 renal): 517 nM
TGI (A498 renal): 1890 nM
GI50 (SW-620 colon): 1720 nM
TGI (SW-620 colon): 3110 nM
GI50 (SK-MEL-28 melanoma): 1670 nM
TGI (SK-MEL-28 melanoma): 3030 nM
GI50 (NCI-H522 lung): 257 nM
TGI (NCI-H522 lung): 1250 nM
GI50 (SF-268 CNS): 1460 nM
TGI (SF-268 CNS): 2790 nM
GI50 (HCC-2998 colon): 1570 nM
TGI (HCC-2998 colon): 2930 nM
GI50 (RXF 393 renal): 1290 nM
TGI (RXF 393 renal): 2570 nM
GI50 (RPMI-8226 leukemia): 1160 nM
TGI (RPMI-8226 leukemia): 2380 nM
GI50 (SR leukemia): 1560 nM
TGI (SR leukemia): 2890 nM
GI50 (SNB-75 CNS): 1440 nM
TGI (SNB-75 CNS): 2890 nM
GI50 (TK-10 renal): 788 nM
TGI (TK-10 renal): 2060 nM
GI50 (OVCAR-5 ovarian): 1550 nM
TGI (OVCAR-5 ovarian): 3390 nM
GI50 (ACHN renal): 440 nM
TGI (ACHN renal): 1710 nM
GI50 (UACC-62 melanoma): 1560 nM
TGI (UACC-62 melanoma): 2900 nM
GI50 (NCI-H322M lung): 354 nM
TGI (NCI-H322M lung): 1670 nM
GI50 (OVCAR-8 ovarian): 1440 nM
TGI (OVCAR-8 ovarian): 2760 nM
GI50 (HOP-62 NSCLC): 1800 nM
TGI (HOP-62 NSCLC): 3510 nM
GI50 ([…]-0 renal): 1180 nM
TGI (786-0 renal): 2420 nM
GI50 (M14 melanoma): 1770 nM
TGI (M14 melanoma): 3160 nM
GI50 (NCI-H23 lung): 1830 nM
TGI (NCI-H23 lung): 3860 nM
